Columns and labels:
[1] = Hygroscopicity of the crystalline polymorphic forms; assay type: physicochemical; conditions: crystalline solid form
[2] = Solid-state stability of the polymorphic forms
[3] = cited from earlier work

CC(C)(Sc1cc(C(C)(C)C)c(O)c(C(C)(C)C)c1)Sc1cc(C(C)(C)C)c(OCC(=O)O)c(C(C)(C)C)c1 [Form A]
hygroscopicity [1]: nonhygroscopic

CCC(Oc1c(C(C)(C)C)cc(SC(C)(C)Sc2cc(C(C)(C)C)c(O)c(C(C)(C)C)c2)cc1C(C)(C)C)C(=O)O (stereo not drawn) [Form Al]
stability of polymorphic form [2]: acceptable stability

CC(C)(Sc1cc(C(C)(C)C)c(O)c(C(C)(C)C)c1)Sc1cc(C(C)(C)C)c(O)c(C(C)(C)C)c1 [probucol, 4,4′-(isopropylidenedithio) bis[2,6-di-tert-butylphenol]]
solubility in water [3]: minimally soluble in water
